Read-outs that look alike come from different tables or passages of the source.
Target: T1, human SARM1(50-724) (Homo sapiens, UniProt Q6SZW1)
T1 construct: 40 nM human SARM1(50-724)
T1 sequence (Q6SZW1 50-724): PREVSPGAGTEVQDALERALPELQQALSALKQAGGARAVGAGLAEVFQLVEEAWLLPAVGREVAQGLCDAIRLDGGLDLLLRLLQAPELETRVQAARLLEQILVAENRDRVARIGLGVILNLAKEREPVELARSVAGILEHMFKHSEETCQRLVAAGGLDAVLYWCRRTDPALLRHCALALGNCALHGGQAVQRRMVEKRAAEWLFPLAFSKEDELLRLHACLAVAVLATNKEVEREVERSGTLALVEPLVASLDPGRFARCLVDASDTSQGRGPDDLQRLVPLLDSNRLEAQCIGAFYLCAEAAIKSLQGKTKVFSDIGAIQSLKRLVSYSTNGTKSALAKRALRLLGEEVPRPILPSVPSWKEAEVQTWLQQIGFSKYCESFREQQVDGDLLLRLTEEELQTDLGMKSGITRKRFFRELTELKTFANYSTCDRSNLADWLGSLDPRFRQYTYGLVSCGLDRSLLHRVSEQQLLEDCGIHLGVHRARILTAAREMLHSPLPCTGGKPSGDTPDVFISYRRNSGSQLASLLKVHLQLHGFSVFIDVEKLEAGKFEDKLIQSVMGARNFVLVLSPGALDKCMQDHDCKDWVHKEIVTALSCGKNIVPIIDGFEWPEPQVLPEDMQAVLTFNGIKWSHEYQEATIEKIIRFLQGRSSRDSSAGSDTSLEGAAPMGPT
Test: SARM1 NADase biochemical assay (HPLC peak areas of NAD and NAM)
Details: for IC50: dose-response, 1:3 serial dilution from 100 μM, 40 nM SARM1, 0.3 mM NMN, 20 μM NAD, 60 min rt
Description: The reaction was incubated at room temperature for 60 minutes and quenched with 20 μL of 0.4% formic acid. […] Total run time for each sample was 4 minutes. […] Samples were run at a flow rate of 0.8 mL/min at 55° C. Peak areas of NAD and NAM were determined using OpenLAB CDS (Chem Station edition) software. For dose-response, the compound was diluted serially 1:3 in DMSO and added to the reaction starting at a final compound concentration of 100 μM in 1% DMSO.

[1] = read-out: Avg NAD % inhibition at 50 μM
[2] = read-out: Avg NAM % inhibition at 50 μM
[3] = 50 μM compound, NAD peak area, read-out: Avg NAD % inhibition at 50 μM
[4] = 50 μM compound, NAM peak area, read-out: Avg NAM % inhibition at 50 μM

Compound | IC50 | other results
FC(c1ccncc1)c1ccn(CC(F)(F)F)n1 (racemic) [Example 79, (rac)-4-(Fluoro(1-(2,2,2-trifluoroethyl)-1H-pyrazol-3-yl)methyl)pyridine] | 10 to 100 µM | 
FC(F)(F)Cn1ccc(C(Cl)c2ccncc2)n1 (racemic) [Example 81, (rac)-4-(Chloro(1-(2,2,2-trifluoroethyl)-1H-pyrazol-3-yl)methyl)pyridine] | 10 to 100 µM | 
CC(c1ccncc1)n1ccc(N(C)c2nccs2)n1 (racemic) [Example 91, (rac)-N-Methyl-N-(1-(1-(pyridin-4-yl)ethyl)-1H-pyrazol-3-yl)thiazol-2-amine] |  | inhibition at 50 µM [1]: 0 to 50%; inhibition at 50 µM [2]: 0 to 50%
CC(c1ccncc1)c1ccn(Cc2ccccc2)n1 (racemic) [Example 92, (rac)-4-(1-(1-Benzyl-1H-pyrazol-3-yl)ethyl)pyridine] | 10 to 100 µM | 
CCC(c1ccncc1)n1ccc(NCC(F)(F)F)n1 (racemic) [Example 99, (rac)-1-(1-(Pyridin-4-yl)propyl)-N-(2,2,2-trifluoroethyl)-1H-pyrazol-3-amine] | 10 to 100 µM | 
FC(c1ccncc1)n1ccc(CC(F)(F)F)n1 (racemic) [Example 105, (rac)-4-{Fluoro[3-(2,2,2-trifluoroethyl)-1H-pyrazol-1-yl]methyl}pyridine] |  | inhibition at 50 µM [1]: 0 to 50%; inhibition at 50 µM [2]: 0 to 50%
CC(c1ccncc1)n1ccc(C=O)n1 (racemic) [Example 108, (rac)-1-[1-(Pyridin-4-yl)ethyl]-1H-pyrazole-3-carbaldehyde] |  | inhibition at 50 µM [3]: 0 to 50%; inhibition at 50 µM [4]: 0 to 50%
c1cc(Cn2ccc(Nc3nccs3)n2)ccn1 [Example 4, N-(1-(Pyridin-4-ylmethyl)-1H-pyrazol-3-yl)thiazol-2-amine] | 1 to 10 µM | 
N#CCn1ccc(Cc2ccncc2)n1 [Example 9, 2-(3-(Pyridin-4-ylmethyl)-1H-pyrazol-1-yl)acetonitrile] | 1 to 10 µM | 
FC(F)Cn1ccc(Cc2ccncc2)n1 [Example 10, 4-((1-(2,2-Difluoroethyl)-1H-pyrazol-3-yl)methyl)pyridine] | 1 to 10 µM | 
O=C(Nc1ccn(Cc2ccncc2)n1)C(C(F)(F)F)C(F)(F)F [Example 15, 3,3,3-trifluoro-N-(1-(pyridin-4-ylmethyl)-1H-pyrazol-3-yl)-2-(trifluoromethyl)propanamide] | 1 to 10 µM | 
FC(F)(F)C(CNc1ccn(Cc2ccncc2)n1)C(F)(F)F [Example 16, 1-(Pyridin-4-ylmethyl)-N-(3,3,3-trifluoro-2-(trifluoromethyl)propyl)-1H-pyrazol-3-amine] | 1 to 10 µM | 
N#CCNc1ccn(Cc2ccncc2)n1 [Example 17, 2-((1-(Pyridin-4-ylmethyl)-1H-pyrazol-3-yl)amino)acetonitrile] | 1 to 10 µM | 
FC(F)(F)Cn1ccc(Cc2ccncc2)n1 [Example 20, 4-((1-(2,2,2-Trifluoroethyl)-1H-pyrazol-3-yl)methyl)pyridine] | 1 to 10 µM | 
Cc1cnccc1Cc1ccn(CC(F)(F)F)n1 [Example 23, 3-Methyl-4-((1-(2,2,2-trifluoroethyl)-1H-pyrazol-3-yl)methyl)pyridine] | 1 to 10 µM | 
FC(F)(F)CNc1ccn(Cc2ccncc2)n1 [Example 26, 1-(Pyridin-4-ylmethyl)-N-(2,2,2-trifluoroethyl)-1H-pyrazol-3-amine] | 10 to 100 µM | inhibition at 50 µM [3]: 0 to 50%; inhibition at 50 µM [4]: 0 to 50%
N#CCc1ccn(Cc2ccncc2)n1 [Example 30, 2-(1-(Pyridin-4-ylmethyl)-1H-pyrazol-3-yl)acetonitrile] | 1 to 10 µM | 
O=C(CCc1cccc(Cl)c1)Nc1ccn(Cc2ccncc2)n1 [Example 32, 3-(3-Chlorophenyl)-N-(1-(pyridin-4-ylmethyl)-1H-pyrazol-3-yl)propanamide] |  | inhibition at 50 µM [3]: 0 to 50%; inhibition at 50 µM [4]: 0 to 50%

More lines, main results first:

IC50 | Compound | other results
< 1 µM | CC(c1ccncc1)n1ccc(Nc2nccs2)n1 (racemic) [Example 1, (rac)-N-(1-(1-(Pyridin-4-yl)ethyl)-1H-pyrazol-3-yl)thiazol-2-amine] | 
1 to 10 µM | CC(c1ccncc1)n1ccc(NCC#N)n1 (racemic) [Example 5, (rac)-2-((1-(1-(Pyridin-4-yl)ethyl)-1H-pyrazol-3-yl)amino)acetonitrile] | 
1 to 10 µM | CC(C)Cn1ccc(C(C)c2ccncc2)n1 (racemic) [Example 11, (rac)-4-(1-(1-Isobutyl-1H-pyrazol-3-yl)ethyl)pyridine] | 
1 to 10 µM | Cc1cnccc1C(C)n1ccc(NCC(F)(F)F)n1 (racemic) [Example 14, (rac)-1-(1-(3-Methylpyridin-4-yl)ethyl)-N-(2,2,2-trifluoroethyl)-1H-pyrazol-3-amine] | 
1 to 10 µM | CC(c1ccncc1)c1ccn(CC(F)F)n1 (racemic) [Example 18, (rac)-4-(1-(1-(2,2-Difluoroethyl)-1H-pyrazol-3-yl)ethyl)pyridine] | 
1 to 10 µM | CC(c1ccncc1)n1ccc(NC(=O)c2ccc3c(c2)OCO3)n1 (racemic) [Example 19, (rac)-N-(1-(1-(Pyridin-4-yl)ethyl)-1H-pyrazol-3-yl)benzo[d][1,3]dioxole-5-carboxamide] | 
1 to 10 µM | [2H]C([2H])([2H])C(c1ccncc1)c1ccn(CC(F)(F)F)n1 (racemic) [Example 21, (rac)-4-(1-(1-(2,2,2-Trifluoroethyl)-1H-pyrazol-3-yl)ethyl-2,2,2-d3)pyridine] | 
1 to 10 µM | CC(c1ccncc1)c1nn(CC(F)(F)F)cc1F (racemic) [Example 22, (rac)-4-(1-(4-Fluoro-1-(2,2,2-trifluoroethyl)-1H-pyrazol-3-yl)ethyl)pyridine] | 
< 1 µM | CC(c1ccncc1)c1ccn(CC(F)(F)F)n1 (racemic) [Example 24, (rac)-4-(1-(1-(2,2,2-Trifluoroethyl)-1H-pyrazol-3-yl)ethyl)pyridine] | 
1 to 10 µM | [2H]C([2H])([2H])C(c1ccncc1)c1ccn(CC(F)F)n1 (racemic) [Example 25, (rac)-4-(1-(1-(2,2-Difluoroethyl)-1H-pyrazol-3-yl)ethyl-2,2,2-d3)pyridine] | 
< 1 µM | [2H]C([2H])([2H])C([2H])(c1ccncc1)c1ccn(CC(F)(F)F)n1 (racemic) [Example 80, (rac)-4-(1-(1-(2,2,2-Trifluoroethyl)-1H-pyrazol-3-yl)ethyl-1,2,2,2-d4)pyridine] | 
< 1 µM | [2H]C(C)(c1ccncc1)c1ccn(CC(F)(F)F)n1 (racemic) [Example 82, (rac)-4-(1-(1-(2,2,2-Trifluoroethyl)-1H-pyrazol-3-yl)ethyl-1-d)pyridine] | 
1 to 10 µM | CC(c1ccncc1)n1ccc(NC(C)C(F)(F)F)n1 (racemic) [Example 100, (rac)-1-(1-(Pyridin-4-yl)ethyl)-N-(1,1,1-trifluoropropan-2-yl)-1H-pyrazol-3-amine] | 
< 1 µM | CC(c1ccncc1)n1ccc(NCC(F)F)n1 (racemic) [Example 101, (rac)-N-(2,2-Difluoroethyl)-1-(1-(pyridin-4-yl)ethyl)-1H-pyrazol-3-amine] | 
1 to 10 µM | Fc1cn(Cc2ccncc2)nc1CC(F)(F)F (racemic) [Example 104, 4-{[4-Fluoro-3-(2,2,2-trifluoroethyl)-1H-pyrazol-1-yl]methyl}pyridine] | 
1 to 10 µM | CC(c1ccncc1)n1ccc(CC(F)F)n1 (racemic) [Example 107, (rac)-4-{1-[3-(2,2-Difluoroethyl)-1H-pyrazol-1-yl]ethyl}pyridine] | 
1 to 10 µM | CC(c1ccn(CC(F)(F)F)n1)c1ccncc1Cl (racemic) [Example 112, (rac)-3-Chloro-4-(1-(1-(2,2,2-trifluoroethyl)-1H-pyrazol-3-yl)ethyl)pyridine] | 
1 to 10 µM | CC(c1ccncc1)c1ccn(CC#N)n1 (single isomer, unassigned) [Example 12a] | 
< 1 µM | CC(c1ccncc1)c1ccn(CC#N)n1 (single isomer, unassigned) [Example 12b] | 
1 to 10 µM | C[C@H](c1ccn(CC(F)(F)F)n1)c1ccncc1Cl (single isomer, unassigned) [Example 113a] | 
< 1 µM | C[C@@H](c1ccncc1)n1ccc(NCC(F)(F)F)n1 [Example 2, (S)-1-(1-(Pyridin-4-yl)ethyl)-N-(2,2,2-trifluoroethyl)-1H-pyrazol-3-amine] | 
1 to 10 µM | FC(F)CNc1ccn(Cc2ccncc2)n1 [Example 3, N-(2,2-Difluoroethyl)-1-(pyridin-4-ylmethyl)-1H-pyrazol-3-amine] | 
< 1 µM | FC(F)(F)Cc1ccn(Cc2ccncc2)n1 [Example 29, 4-((3-(2,2,2-Trifluoroethyl)-1H-pyrazol-1-yl)methyl)pyridine] | 
